Measured values reported in patent US10359432B2, “Methods for detecting antibodies” (The Regents of the University of California, priority 2008, dated 2019).
Bridge positions count the residues as written; N and C are the ends. Ends that are not written are not given here. * marks the point of attachment. Biotin = O=C1N[C@H]2[C@H](CS[C@H]2CCCCC(=O)*)N1

Columns and labels:
primary CLL cells = experiment: Peptide inhibition of CLL cell staining by labeled mAb, flow cytometry; format: cell-based, human; settings: for Staining of primary CLL cells by fluorescently labeled mAb: no peptide
Protocol: The shaded histogram represents staining with labeled human IgG.
After informed consent was obtained per the Declaration of Helsinki, blood samples were collected from patients at the University of California, San Diego (UCSD) Medical Center who satisfied diagnosis and immunophenotypic criteria for common B-cell CLL.
Subsequently, cells were washed two times with 100 μl FACS-wash (PBS, 5% FCS and 0.5% sodium azide) and fixed with 100 μl with 3.7% formaldehyde in PBS.
There was no effect on the binding activity of the other mAb (data not shown).

[1] = target: Fab fragments of alemtuzumab; experiment: Antibody-peptide binding kinetics, SkiPro interferometer, Fab fragments
Protocol: (§1) FIGS. 7A to 7D include graphical illustrations showing the kinetics of antibody-peptide binding. Biotinylated peptides were captured onto streptavidin coated nanoporous surfaces. The binding of the mAb or their Fab fragments was monitored on a SkiPro™ interferometer. The binding curves were globally fit to a single binding site association/dissociation model to derive Kon, Koff, and Kd values.
Antibodies were prepared as follows. Alemtuzumab (Genzyme, Cambridge, Mass.) and rituximab (Genentech, San Francisco, Calif.) were obtained from the UCSD Cancer Center pharmacy. The antibodies were fluorescently labeled using the Zenon® R-Phycoerythrin Human IgG labeling kit, Zenon® Alexa Fluor® 488 Human IgG labeling and Zenon® Alexa Fluor® 488 protein labeling kits (Invitrogen, Carlsbad, Calif.). For kinetic studies, Fab fragments of each mAb were prepared by papain digestion using a Fab preparation kit (Thermo Fisher Scientific, Rockford, Ill.) as per manufacturers instructions.
(§2) Kinetics of antibody-peptide binding were studied using SkiPro™ Biomolecular Interaction technology platform on a SkiPro™ interferometer equipped with a 2-channel flow cell and an autosampler (Silicon Kinetics Inc. San Diego, Calif.). All reagents were purchased from Sigma-Aldrich (St. Louis, Mo.). All peptides were incubated with oxidizing agent Sodium Tetrathionate at 10 mM in PBS for 1 hour immediately before binding experiments. Biotinylated peptides were diluted to 5 μM in PBS/0.05% BSA and immobilized on Streptavidin-coated SkiSensor™ Biochips for 10 minutes at 4 μl/min flow rate. […] Concentration series of antibodies and antibody Fab fragments were prepared as twofold dilutions in PBS/0.05% BSA. Binding was carried out for 10 minutes followed by 20 minutes dissociation. For all sensorgrams reference channel data was subtracted from the sample channel. The resulting multi-concentration series of binding curves were globally fit to a single binding site association/dissociation model.
(§3) Biotinylated peptides were used for kinetic binding measurements using nano-pore optical interferometry (FIGS. 7A-7D).

alemtuzumab = experiment: Antibody-peptide binding kinetics, SkiPro interferometer, whole mAb; settings: whole molecule alemtuzumab
From the text: as §1, §2, §3

“ACPYSNPSLCGGK (ACPYSNPSLCGGK(Biotin); disulfide 2-10 (inferred)) [pRTX-10B]” was tested, and the “CLL cell labeling by fluorescently labeled rituximab with peptide added” value (primary CLL cells; peptide at 25,000 molar excess) was “largely abrogated”.
For alemtuzumab [reference compound], the “Staining of primary CLL cells by fluorescently labeled mAb” value (primary CLL cells) was “robust staining”.
“ACGSLSPSSCGGK (ACGSLSPSSCGGK(Biotin); disulfide 2-10 (inferred)) [pCp-1B]” was tested, and the “CLL cell labeling by fluorescently labeled alemtuzumab with peptide added” value (primary CLL cells; peptide at 25,000 molar excess) was “largely abrogated”.
rituximab [reference compound] was tested, and the “Staining of primary CLL cells by fluorescently labeled mAb” value (primary CLL cells) was “weak”.
ACGSLSPSSC [Cp-1] gave a Kd [1] of 2050 nM, a Koff [1] of 0.00505 s⁻¹ and a Kon [1] of 2460 M⁻¹ s⁻¹. For the same substance, the Kd (alemtuzumab) was 163 nM, the Koff (alemtuzumab) was 0.00132 s⁻¹ and the Kon (alemtuzumab; biotinylated peptide on streptavidin surface) was 8130 M⁻¹ s⁻¹.
